Laboratory results: patent publication US8563551B2, “Method for preventing or treating a disease related to the glucocorticoid receptor” (Santen Pharmaceutical Co., Ltd., priority 2006, dated 2013)

Target: T1, Recombinant human GR (Homo sapiens, UniProt P04150)
T1 construct: purchased Invitrogen P2816
T1 sequence (P04150 1-777): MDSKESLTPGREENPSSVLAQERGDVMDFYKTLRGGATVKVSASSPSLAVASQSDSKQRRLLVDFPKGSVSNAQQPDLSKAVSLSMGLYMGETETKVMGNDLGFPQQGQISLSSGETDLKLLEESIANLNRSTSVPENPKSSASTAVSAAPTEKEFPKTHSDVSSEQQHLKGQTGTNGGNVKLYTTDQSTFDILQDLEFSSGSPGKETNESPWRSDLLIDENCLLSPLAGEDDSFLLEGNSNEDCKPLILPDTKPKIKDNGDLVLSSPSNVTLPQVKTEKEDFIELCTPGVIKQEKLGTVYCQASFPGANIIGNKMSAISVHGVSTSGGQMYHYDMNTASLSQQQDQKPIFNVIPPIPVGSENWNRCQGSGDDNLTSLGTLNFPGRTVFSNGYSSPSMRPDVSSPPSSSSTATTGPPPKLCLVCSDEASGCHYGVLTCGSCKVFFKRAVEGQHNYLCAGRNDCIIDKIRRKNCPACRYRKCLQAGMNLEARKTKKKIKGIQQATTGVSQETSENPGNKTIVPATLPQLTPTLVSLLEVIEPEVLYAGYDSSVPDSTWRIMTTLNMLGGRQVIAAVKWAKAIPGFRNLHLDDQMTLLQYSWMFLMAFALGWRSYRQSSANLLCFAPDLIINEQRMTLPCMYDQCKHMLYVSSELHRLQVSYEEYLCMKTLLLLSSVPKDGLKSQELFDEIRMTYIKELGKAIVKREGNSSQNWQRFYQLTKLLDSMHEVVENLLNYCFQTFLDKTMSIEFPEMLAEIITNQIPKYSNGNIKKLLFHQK
Assay: GR competitor assay (receptor competitor assay by fluorescence polarization, Invitrogen kit P2816)
Conditions: 20 μM test compound solution (10 μL per well plus 5 μL 4×GS1 and 5 μL 4×GR); relative to 2 mM dexamethasone positive control; ratios of 100% or more are indicated by 100%; read-out: GR Binding ratio (%)
Procedure: In order to evaluate a binding activity to GR, a receptor competitor assay was carried out by a fluorescence polarization method. In the assay, a GR competitor assay kit (manufactured by Invitrogen, cat No. P2816) was used, and a procedure was carried out according to the protocol attached to the kit. Hereinafter, the specific method will be described.
GR screening buffer: A buffer containing 10 mM potassium phosphate (pH 7.4), 20 mM sodium molybdate (Na2MoO4), 0.1 mM ethylene diamine tetraacetic acid (EDTA), 5 mM dithiothreitol (DTT), 0.1 mM stabilizing peptide and 2% dimethylsulfoxide was prepared.
4×GS1 solution: Fluormone™ GS1, which is a fluorescent glucocorticoid ligand, was diluted with GR screening buffer, whereby a 4 nM solution was prepared.
4×GR solution: Recombinant human GR was diluted with GR screening buffer, whereby a 16 nM solution was prepared.
After a test compound was dissolved in dimethylsulfoxide, the resulting solution was diluted with GR screening buffer, whereby a 20 μM test compound solution was prepared.
1) The test compound solution was added in an amount of 10 μL into each well of a 384-well plate, and then, 4×GS1 solution and 4×GR solution were added in an amount of 5 μL into each well, respectively.
2) The plate was incubated in a dark place at room temperature for 2 to 4 hours.
3) By using a multimode plate reader, Analyst™ HT (manufactured by LJL Biosystems), fluorescence polarization of each well was measured. As the blank, a well containing GR screening buffer in place of the test compound and 4×GS1 solution was used.
4) The same procedure as that in the above 1) to 3) was carried out except that GR screening buffer was used in place of the test compound solution, and the obtained result was taken as the negative control.
5) The same procedure as that in the above 1) to 3) was carried out except that 2 mM dexamethasone was used in place of the test compound solution, and the obtained result was taken as the positive control.
A GR binding ratio (%) was calculated from the following equation. GR binding ratio(%)=100×[1−(fluorescence polarization of test compound solution−fluorescence polarization of positive control solution)/(fluorescence polarization of negative control solution fluorescence polarization of positive control solution)] (Test Results and Discussion)

| inhibition at 20 µM (stock) [%] | Compound |
| --- | --- |
| 93 | COc1cc(OC(=O)c2ccc(C)nc2)ccc1-c1ccc2c(c1COC(=O)c1ccc(C)s1)C(C)=CC(C)(C)N2 [Compound 1-2, 6-[2-Methoxy-4-(6-methylpyridin-3-ylcarbonyloxy)phenyl]-5-(5-methylthiophen-2-ylcarbonyloxymethyl)-2,2,4-trimethyl-1,2-dihydroquinoline] |
| 100 | COc1cc(OC(=O)c2ccoc2)ccc1-c1ccc2c(c1COC(=O)c1ccc(C)cc1)C(C)=CC(C)(C)N2 [Compound 1-3, 6-[4-(Furan-3-ylcarbonyloxy)-2-methoxyphenyl]-5-(4-methylbenzoyloxymethyl)-2,2,4-trimethyl-1,2-dihydroquinoline] |
| 100 | COc1cc(OC(=O)c2ccccc2Cl)ccc1-c1ccc2c(c1COC(=O)c1ccc(C)cc1)C(C)=CC(C)(C)N2 [Compound 1-6, 6-[4-(2-Chlorobenzoyloxy)-2-methoxyphenyl]-5-(4-methylbenzoyloxymethyl)-2,2,4-trimethyl-1,2-dihydroquinoline] |
| 100 | COc1ccccc1C(=O)Oc1ccc(-c2ccc3c(c2COC(=O)c2ccc(C)cc2)C(C)=CC(C)(C)N3)c(OC)c1 [Compound 1-7, 6-[2-Methoxy-4-(2-methoxybenzoyloxy)phenyl]-5-(4-methylbenzoyloxymethyl)-2,2,4-trimethyl-1,2-dihydroquinoline] |
| 100 | COc1cc(OC(=O)c2cccnc2)ccc1-c1ccc2c(c1COC(=O)c1ccc(C)cc1)C(C)=CC(C)(C)N2 [Compound 1-8, 5-(4-Methylbenzoyloxymethyl)-6-[2-methoxy-4-(pyridin-3-ylcarbonyloxy)phenyl]-2,2,4-trimethyl-1,2-dihydroquinoline] |
| 100 | COc1cc(OC(=O)c2ccco2)ccc1-c1ccc2c(c1COC(=O)c1ccc(C)cc1)C(C)=CC(C)(C)N2 [Compound 1-10, 6-[4-(Furan-2-ylcarbonyloxy)-2-methoxyphenyl]-5-(4-methylbenzoyloxymethyl)-2,2,4-trimethyl-1,2-dihydroquinoline] |
| 100 | CCCC(=O)Oc1ccc(-c2ccc3c(c2COC(=O)c2ccc(C)s2)C(C)=CC(C)(C)N3)c(OC)c1 [Compound 1-11, 6-(4-Butyryloxy-2-methoxyphenyl)-5-(5-methylthiophen-2-ylcarbonyloxymethyl)-2,2,4-trimethyl-1,2-dihydroquinoline] |
| 93 | COc1ccccc1C(=O)Oc1ccc(-c2ccc3c(c2COC(=O)c2ccc(C)s2)C(C)=CC(C)(C)N3)c(OC)c1 [Compound 1-12, 6-[2-Methoxy-4-(2-methoxybenzoyloxy)phenyl]-5-(5-methylthiophen-2-ylcarbonyloxymethyl)-2,2,4-trimethyl-1,2-dihydroquinoline] |
| 96 | COc1cc(OC(=O)c2cccnc2)ccc1-c1ccc2c(c1COC(=O)c1ccc(C)s1)C(C)=CC(C)(C)N2 [Compound 1-13, 6-[2-Methoxy-4-(pyridin-3-ylcarbonyloxy)phenyl]-5-(5-methylthiophen-2-ylcarbonyloxymethyl)-2,2,4-trimethyl-1,2-dihydroquinoline] |
| 96 | COc1cc(OC(=O)c2ccco2)ccc1-c1ccc2c(c1COC(=O)c1ccc(C)s1)C(C)=CC(C)(C)N2 [Compound 1-14, 6-[4-(Furan-2-ylcarbonyloxy)-2-methoxyphenyl]-5-(5-methylthiophen-2-ylcarbonyloxymethyl)-2,2,4-trimethyl-1,2-dihydroquinoline] |
| 91 | COc1cc(OC(=O)c2ccccc2Cl)ccc1-c1ccc2c(c1COC(=O)c1ccc(C)s1)C(C)=CC(C)(C)N2 [Compound 1-15, 6-[4-(2-Chlorobenzoyloxy)-2-methoxyphenyl]-5-(5-methylthiophen-2-ylcarbonyloxymethyl)-2,2,4-trimethyl-1,2-dihydroquinoline] |
| 85 | COc1cc(OC(=O)c2cccc(Cl)c2)ccc1-c1ccc2c(c1COC(=O)c1ccc(C)s1)C(C)=CC(C)(C)N2 [Compound 1-16, 6-[4-(3-Chlorobenzoyloxy)-2-methoxyphenyl]-5-(5-methylthiophen-2-ylcarbonyloxymethyl)-2,2,4-trimethyl-1,2-dihydroquinoline] |
| 84 | COc1cc(OC(=O)c2ccc(Cl)cc2)ccc1-c1ccc2c(c1COC(=O)c1ccc(C)s1)C(C)=CC(C)(C)N2 [Compound 1-17, 6-[4-(4-Chlorobenzoyloxy)-2-methoxyphenyl]-5-(5-methylthiophen-2-ylcarbonyloxymethyl)-2,2,4-trimethyl-1,2-dihydroquinoline] |
| 91 | COc1cc(OC(=O)c2ccccc2)ccc1-c1ccc2c(c1COC(=O)c1ccc(C)s1)C(C)=CC(C)(C)N2 [Compound 1-18, 6-(4-Benzoyloxy-2-methoxyphenyl)-5-(5-methylthiophen-2-ylcarbonyloxymethyl)-2,2,4-trimethyl-1,2-dihydroquinoline] |
| 89 | COc1cc(OC(=O)c2ccccc2C)ccc1-c1ccc2c(c1COC(=O)c1ccc(C)s1)C(C)=CC(C)(C)N2 [Compound 1-19, 6-[2-Methoxy-4-(2-methylbenzoyloxy)phenyl]-5-(5-methylthiophen-2-ylcarbonyloxymethyl)-2,2,4-trimethyl-1,2-dihydroquinoline] |
| 90 | COc1cc(OC(=O)c2ccccc2F)ccc1-c1ccc2c(c1COC(=O)c1ccc(C)s1)C(C)=CC(C)(C)N2 [Compound 1-20, 6-[4-(2-Fluorobenzoyloxy)-2-methoxyphenyl]-5-(5-methylthiophen-2-ylcarbonyloxymethyl)-2,2,4-trimethyl-1,2-dihydroquinoline] |
| 91 | COc1ccc(C(=O)Oc2ccc(-c3ccc4c(c3COC(=O)c3ccc(C)s3)C(C)=CC(C)(C)N4)c(OC)c2)cc1 [Compound 1-22, 6-[2-Methoxy-4-(4-methoxybenzoyloxy)phenyl]-5-(5-methylthiophen-2-ylcarbonyloxymethyl)-2,2,4-trimethyl-1,2-dihydroquinoline] |
| 94 | COc1cc(OC(=O)c2cncnc2)ccc1-c1ccc2c(c1COC(=O)c1ccc(C)s1)C(C)=CC(C)(C)N2 [Compound 1-23, 6-[2-Methoxy-4-(pyrimidin-5-ylcarbonyloxy)phenyl]-5-(5-methylthiophen-2-ylcarbonyloxymethyl)-2,2,4-trimethyl-1,2-dihydroquinoline] |
| 94 | COc1cc(OC(=O)c2ccsc2)ccc1-c1ccc2c(c1COC(=O)c1ccc(C)s1)C(C)=CC(C)(C)N2 [Compound 1-24, 6-[2-Methoxy-4-(thiophen-3-ylcarbonyloxy)phenyl]-5-(5-methylthiophen-2-ylcarbonyloxymethyl)-2,2,4-trimethyl-1,2-dihydroquinoline] |
| 94 | COc1cc(OC(=O)c2ccoc2)ccc1-c1ccc2c(c1COC(=O)c1ccc(C)s1)C(C)=CC(C)(C)N2 [Compound 1-25, 6-[4-(Furan-3-ylcarbonyloxy)-2-methoxyphenyl]-5-(5-methylthiophen-2-ylcarbonyloxymethyl)-2,2,4-trimethyl-1,2-dihydroquinoline] |
| 94 | COC(=O)c1cccc(C(=O)Oc2ccc(-c3ccc4c(c3COC(=O)c3ccc(C)s3)C(C)=CC(C)(C)N4)c(OC)c2)c1 [Compound 1-26, 6-[2-Methoxy-4-(3-methoxycarbonylbenzoyloxy)phenyl]-5-(5-methylthiophen-2-ylcarbonyloxymethyl)-2,2,4-trimethyl-1,2-dihydroquinoline] |
